{"source": "patent US9951372B2", "about": "“Compounds and methods for assaying redox state of metabolically active cells and methods for measuring NAD(P)/NAD(P)H” (PROMEGA CORPORATION, priority 2011, dated 2018)", "system": "NAD biosynthesis pathway", "assay": "Monitoring inhibition of NAD biosynthesis", "assay_type": "cell-based", "settings": "48 hours of treatment; several cell lines; detection with PBI 4312", "method": "Cells were plated at 7.5×10^3 cells/12.5 ul into wells of a 384-well plates. The cells were plated in full media containing 10% FBS (PC3 and A549 cells in F12K; Hela, MD-AMB and HET 116 cells in DMEM without pyruvate; HepG2 cells in E-MEM and Jurkat cells in RPMI). […] The cells were placed in a CO2 dependent incubator. […] Promega Cat. No V8920) was added to each well. The reaction was incubated for 30 minutes at room temperature, and luminescence measured using a Tecan plate luminometer. The data are shown as % inhibition compared to control (no inhibitor) and are plotted using the sigmoidal dose-response, variable slope model supplied with SigmaPlot 11.0 software. A signal-to-background ratio (S/B) calculated between control cells and cells treated with the highest FK866 concentration.", "data": [{"smiles": "O=C(/C=C/c1cccnc1)NCCCCC1CCN(C(=O)c2ccccc2)CC1", "note": "[FK866]", "values": [{"measurement": "effect on cellular NAD levels", "result": "decrease in NAD levels"}]}]}
